Patent US12138250B2, “Formulations of 6-(2-hydroxy-2-methylpropoxy)-4-(6-(6-((6-methoxypyridin-3-yl)methyl)-3,6-diazabicyclo[3.1.1]heptan-3-yl)pyridin-3-yl)pyrazolo[1,5-a]pyridine-3-carbonitrile” (Loxo Oncology, Inc., priority 2017, dated 2024)
Where two headings read alike, the source gives them in different places.

Columns and labels:
[1] = Gravimetric Vapor Sorption (GVS); format: physicochemical
Method: Approximately 10-20 mg of sample was placed into a mesh vapor sorption balance pan and loaded into an IGASorp Moisture Sorption Analyzer balance by Hiden Analytical. The sample was subjected to a ramping profile from 40-90% RH at 10% increments, maintaining the sample at each step until a stable weight had been achieved (98% step completion). After completion of the sorption cycle, the sample was dried using the same procedure to 0% RH, and finally taken back to the starting point of 40% RH. The weight change during the sorption/desorption cycles were plotted, allowing for the hygroscopic nature of the sample to be determined.

[2] = salt screen, succinic acid
[3] = Solvent solubility screen in 32 solvent systems; format: physicochemical; conditions: for solubility: 40 °C, thermodynamic from solid, read-out: Approximate solubility
Method: A solvent solubility screen was conducted in 32 solvent systems as follows. […] Between each addition, the mixture was checked for dissolution. If no dissolution was apparent, the mixture was heated to around 40° C. and checked again. This procedure was continued until dissolution was observed or until 100 volumes of solvent had been added. Undissolved material from the solubility screen was isolated and analyzed by XRPD.

[4] = Overnight storage at 40° C. and 75% RH with XRPD reanalysis (salt screen, temperature cycling polymorph screen); format: physicochemical; conditions: for Post-temperature cycling (XRPD form): analyzed wet; for Post-stability tests (XRPD form): stored at 40° C. and 75% RH overnight
Method: Each mixture was filtered and isolated solids were analyzed (wet) by XRPD to determine crystallinity and form. Samples in which solid was not observed were stored uncapped to allow solvent evaporation. […] The samples were then reanalyzed by XRPD to determine any changes in form or crystallinity. The observations and results, including the different diffractogram patterns observed during the screen, are shown in Tables 8-32, below, and FIGS. 6A-6B through 29A-29B. After temperature cycling, each mixture was filtered and isolated solids were analyzed (wet) by XRPD to determine crystallinity and form. The samples were then stored at 40° C. and 75% RH overnight and reanalyzed by XRPD to determine any changes in form or crystallinity. Results are shown in Table 39, below, and FIGS. 40A-40D.

[5] = Dynamic Vapor Sorption (DVS); format: physicochemical
Method: Approximately 10 mg of sample was placed into a mesh vapor sorption balance pan and loaded into a DVS-1 dynamic vapor sorption balance by Surface Measurement Systems. The sample was subjected to a ramping profile from 40-90% relative humidity (RH) at 10% increments, maintaining the sample at each step until a stable weight had been achieved (99.5% step completion). After completion of the sorption cycle, the sample was dried using the same procedure to 0% RH and then a second sorption cycle back to 40% RH. The weight change during the sorption/desorption cycles were plotted, allowing for the hygroscopic nature of the sample to be determined. XRPD analysis was then carried out on any solid retained.

COc1ccc(CN2C3CC2CN(c2ccc(-c4cc(OCC(C)(C)O)cn5ncc(C#N)c45)cn2)C3)cn1 [Form 1]
No change in form: form or crystallinity by XRPD post-GVS analysis [1]
2.6%: weight increase by GVS ([1]; at 90% RH)
moderately hygroscopic: hygroscopicity by GVS [1]

O=C(O)CCC(=O)O [Succinic acid]
Form 8: XRPD post-cycling ([2]; IPA/water (10%)) | XRPD post-cycling ([2]; MeCN/water (20%)) | XRPD post-stability ([2]; MeCN/water (20%), overnight 40° C. and 75% RH)

COc1ccc(CN2C3CC2CN(c2ccc(-c4cc(OCC(C)(C)O)cn5ncc(C#N)c45)cn2)C3)cn1 [compound of Formula (I), 6-(2-hydroxy-2-methylpropoxy)-4-(6-(6-((6-methoxypyridin-3-yl)methyl)-3,6-diazabicyclo[3.1.1]heptan-3-yl)pyridin-3-yl)pyrazolo[1,5-a]pyridine-3-carbonitrile]
No change in Form: change in form post-DVS ([5]; XRPD after DVS)
Amorphous: Post-temperature cycling (XRPD form) ([4]; slurry in CHCl3, 40° C./RT cycles 72 hours) | Post-temperature cycling (XRPD form) ([4]; slurry in DCM, 40° C./RT cycles 72 hours)
Form 1: Post-temperature cycling (XRPD form) ([4]; slurry in Acetone:Water (50%), 40° C./RT cycles 72 hours) | Post-temperature cycling (XRPD form) ([4]; slurry in Anisole, 40° C./RT cycles 72 hours) | Post-temperature cycling (XRPD form) ([4]; slurry in Cyclohexane, 40° C./RT cycles 72 hours) | Post-temperature cycling (XRPD form) ([4]; slurry in DMSO, 40° C./RT cycles 72 hours) | Post-temperature cycling (XRPD form) ([4]; slurry in EtOAc, 40° C./RT cycles 72 hours) | Post-temperature cycling (XRPD form) ([4]; slurry in MIBK, 40° C./RT cycles 72 hours) | Post-temperature cycling (XRPD form) ([4]; slurry in Water, 40° C./RT cycles 72 hours) | Post-stability tests (XRPD form) ([4]; solid from 1,4-Dioxane) | Post-stability tests (XRPD form) ([4]; solid from 1-Butanol) | Post-stability tests (XRPD form) ([4]; solid from 1-Propanol) | Post-stability tests (XRPD form) ([4]; solid from 2-Ethoxyethanol) | Post-stability tests (XRPD form) ([4]; solid from 2-Methyl THF) | Post-stability tests (XRPD form) ([4]; solid from Acetone:Water (50%)) | Post-stability tests (XRPD form) ([4]; solid from Acetone) | Post-stability tests (XRPD form) ([4]; solid from Anisole) | Post-stability tests (XRPD form) ([4]; solid from CHCl3) | Post-stability tests (XRPD form) ([4]; solid from Cyclohexane) | Post-stability tests (XRPD form) ([4]; solid from Cyclohexanone) | Post-stability tests (XRPD form) ([4]; solid from DCM) | Post-stability tests (XRPD form) ([4]; solid from DMSO) | Post-stability tests (XRPD form) ([4]; solid from EtOAc) | Post-stability tests (XRPD form) ([4]; solid from Ethanol) | Post-stability tests (XRPD form) ([4]; solid from IPA) | Post-stability tests (XRPD form) ([4]; solid from MEK) | Post-stability tests (XRPD form) ([4]; solid from MIBK) | Post-stability tests (XRPD form) ([4]; solid from MeCN:Water (20%)) | Post-stability tests (XRPD form) ([4]; solid from MeOAc) | Post-stability tests (XRPD form) ([4]; solid from Nitromethane) | Post-stability tests (XRPD form) ([4]; solid from THF) | Post-stability tests (XRPD form) ([4]; solid from Water)
Form 8: Post-temperature cycling (XRPD form) ([4]; slurry in 1-Propanol, 40° C./RT cycles 72 hours) | Post-temperature cycling (XRPD form) ([4]; slurry in IPA, 40° C./RT cycles 72 hours)
< 5 mg/mL: solubility ([3]; aqueous with cosolvent or surfactant or cyclodextrin, solvent Acetone:Water (50%)) | solubility ([3]; organic solvent or mixture, solvent 1,4-Dioxane, (P) = partial solubility at 100 volumes) | solubility ([3]; organic solvent or mixture, solvent 1-Butanol) | solubility ([3]; organic solvent or mixture, solvent 1-Propanol) | solubility ([3]; organic solvent or mixture, solvent 2-Ethoxyethanol, (P) = partial solubility at 100 volumes) | solubility ([3]; organic solvent or mixture, solvent 2-Methyl THF, (P) = partial solubility at 100 volumes) | solubility ([3]; organic solvent or mixture, solvent Acetone) | solubility ([3]; organic solvent or mixture, solvent Anisole, (P) = partial solubility at 100 volumes) | solubility ([3]; organic solvent or mixture, solvent CHCl3, (P) = partial solubility at 100 volumes) | solubility ([3]; organic solvent or mixture, solvent Cyclohexane) | solubility ([3]; organic solvent or mixture, solvent Cyclohexanone, (P) = partial solubility at 100 volumes) | solubility ([3]; organic solvent or mixture, solvent DCM, (P) = partial solubility at 100 volumes) | solubility ([3]; organic solvent or mixture, solvent EtOAc) | solubility ([3]; organic solvent or mixture, solvent Ethanol) | solubility ([3]; organic solvent or mixture, solvent IPA) | solubility ([3]; organic solvent or mixture, solvent MEK) | solubility ([3]; organic solvent or mixture, solvent MIBK) | solubility ([3]; organic solvent or mixture, solvent MeOAc) | solubility ([3]; organic solvent or mixture, solvent Nitromethane, (P) = partial solubility at 100 volumes) | solubility ([3]; organic solvent or mixture, solvent THF, (P) = partial solubility at 100 volumes) | solubility ([3]; solvent Water)
around 3.6%: weight increase by DVS ([5]; at 90% RH, material prepared as in Example 1, identified as Form 1)
Weak diffraction: Post-temperature cycling (XRPD form) ([4]; slurry in 1,4-Dioxane, 40° C./RT cycles 72 hours) | Post-temperature cycling (XRPD form) ([4]; slurry in 1-Butanol, 40° C./RT cycles 72 hours) | Post-temperature cycling (XRPD form) ([4]; slurry in 2-Ethoxyethanol, 40° C./RT cycles 72 hours) | Post-temperature cycling (XRPD form) ([4]; slurry in 2-Methyl THF, 40° C./RT cycles 72 hours) | Post-temperature cycling (XRPD form) ([4]; slurry in Acetone, 40° C./RT cycles 72 hours) | Post-temperature cycling (XRPD form) ([4]; slurry in Cyclohexanone, 40° C./RT cycles 72 hours) | Post-temperature cycling (XRPD form) ([4]; slurry in Ethanol, 40° C./RT cycles 72 hours) | Post-temperature cycling (XRPD form) ([4]; slurry in MEK, 40° C./RT cycles 72 hours) | Post-temperature cycling (XRPD form) ([4]; slurry in MeCN:Water (20%), 40° C./RT cycles 72 hours) | Post-temperature cycling (XRPD form) ([4]; slurry in MeOAc, 40° C./RT cycles 72 hours) | Post-temperature cycling (XRPD form) ([4]; slurry in Nitromethane, 40° C./RT cycles 72 hours) | Post-temperature cycling (XRPD form) ([4]; slurry in THF, 40° C./RT cycles 72 hours) | Post-temperature cycling (XRPD form) ([4]; slurry in THF:Water (1%), 40° C./RT cycles 72 hours)
low solubility: solubility in solvent solubility screen ([3]; majority of solvent systems investigated)
moderately hygroscopic: hygroscopicity by DVS ([5]; material prepared as in Example 1, identified as Form 1)
moderate solubility: solubility in solvent solubility screen ([3]; DMSO, NMP, and THF/water (1%))
